This note sets out measurements from patent US20100324319A1, “Tame based chelators and uses thereof” (priority 2003, published 2010).

The nature of series [1]: transchelation experiments with ^111In^3+ labelled chelators, DTPA as competing ligand. The series is classed as physicochemical. Conditions: ^111In labelled, after 24 hours. As for the experimental part: (§1) The chelators defined by compounds 8 and 15 in FIG. 1 and as described, supra, were tested in transchelation experiments, using ^111In^3+, and ^67Ga^3+, using the known chelator DTPA as a competing ligand. Labelling was carried out using standard methods.

Series [2] in a line: transchelation experiments with ^67Ga^3+ labelled chelators, DTPA as competing ligand. It counts as physicochemical. To be noted: ^67Ga labelled, after 10 days. The method, then:
as §1
Labelled TAME-HexA was 94% intact after 10 days, and 99% of the labelled TAME-HexB was stable after the same period of time.

For `O=C(O)CN(CC(=O)O)CC(CN(CC(=O)O)CC(=O)O)(CN(CC(=O)O)CC(=O)O)CN(Cc1ccccc1)Cc1ccccc1` [Compound 15, 2-[Bis(carboxymethylamino)methyl]-2-[(dibenzylamino)methyl]-propylene-1,3-dinitrilotetraacetic acid], the labelled material intact entry in series [1] was “about 10%”. In addition, in series [2], the “labelled chelator intact / stable” value is listed as 99%.
